According to patent US12673954B2 (BRISTOL-MYERS SQUIBB COMPANY, priority 2021, dated 2026):
Where two headings read alike, the source gives them in different places.

What was measured:
[1] = tested on: NF-κB pathway, THP1-Dual™ cells; experiment: STING reporter assay in THP1-Dual cells, NF-κB pathway (SEAP, QUANTI-Blue); format: cell-based, human; conditions: THP1-Dual cells, 10% human plasma, 20 hours, SEAP, 100% activation = 100 μM cGAMP, read-out: NFkB (EC50 μM)
Outline: (§1)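 THP-1-derived dual-reporter cells treated with serially diluted compounds (final top concentration 100 μM) for 20 h at 37° C. NF-κB read as SEAP via QUANTI-Blue at OD620; IRF read as Lucia luminescence via QUANTI-Luc after 5 min. 100% activation set by 100 μM cGAMP, baseline by DMSO.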

[2] = tested on: IRF pathway, THP1-Dual™ cells; experiment: STING reporter assay in THP1-Dual cells, IRF pathway (Lucia luciferase, QUANTI-Luc); format: cell-based, human; conditions: THP1-Dual cells, 10% human plasma, 20 hours, Lucia luciferase, 100% activation = 100 μM cGAMP, read-out: IRF (EC50 μM)
Outline: as §1

Row | SMILES | EC50 ([1]; Homo sapiens, THP1-Dual, 20 h) | EC50 ([2]; Homo sapiens, THP1-Dual, 20 h) | EC50 [1] | EC50 [2]
1 | O=C(OCC(F)(F)F)c1ccc(F)c2cc(CNC(=O)c3cnn4cccnc34)oc12 [EXAMPLE 355, 2,2,2-Trifluoroethyl 4-fluoro-2-((pyrazolo[1,5-a]pyrimidine-3-carboxamido)methyl)benzofuran-7-carboxylate] | 1.3 µM | 0.96 µM | – | –
2 | COC(=O)c1cc(Cl)cc2cc(CNC(=O)c3cncc4cccnc34)oc12 [Example 50, Methyl 2-((1,6-naphthyridine-8-carboxamido)methyl)-5-chlorobenzofuran-7-carboxylate] | 1.1 µM | 0.93 µM | – | –
3 | O=C(OCCOCCO)c1cc(Cl)cc2cc(CNC(=O)c3cnn4cccnc34)oc12 [EXAMPLE 249, 2-(2-Hydroxyethoxy)ethy1 5-chloro-2-((pyrazolo[1,5-a]pyrimidine-3-carboxamido)methyl)benzofuran-7-carboxylate] | 2.5 µM | 2.4 µM | – | –
4 | CC(CC(F)(F)F)OC(=O)c1cc(Cl)cc2cc(CNC(=O)c3cnn4cccnc34)oc12 (single isomer, unassigned) [EXAMPLE 336, 4,4,4-Trifluorobutan-2-yl 5-chloro-2-((pyrazolo[1,5-a]pyrimidine-3-carboxamido)methyl)benzofuran-7-carboxylate] | – | – | 2.5 µM | 3.2 µM
5 | O=C(OCC(F)F)c1cc(F)cc2cc(CNC(=O)c3cnn4cccnc34)oc12 [EXAMPLE 235, 2,2-Difluoroethyl 5-fluoro-2-((pyrazolo[1,5-a]pyrimidine-3-carboxamido)methyl)benzofuran-7-carboxylate] | 0.68 µM | 0.69 µM | – | –
6 | O=C(O)c1cc(Cl)cc2c(Cl)c(CNC(=O)c3cnn4cccnc34)oc12 [EXAMPLE 174, 3,5-Dichloro-2-((pyrazolo[1,5-a]pyrimidine-3-carboxamido)methyl)benzofuran-7-carboxylic acid] | 91 µM | 83 µM | – | –
7 | C[C@H](NC(=O)c1cnn2cccnc12)c1oc2c(C(=O)O[C@H](C)C(F)(F)F)cc(F)cc2c1Cl [EXAMPLE 293, (R)-1,1,1-Trifluoropropan-2-yl 3-chloro-5-fluoro-2-((S)-1-(pyrazolo[1,5-a]pyrimidine-3-carboxamido)ethyl)benzofuran-7-carboxylate] | 3.8 µM | 4.4 µM | – | –
8 | COC(=O)c1ccc(Cl)c2cc(CNC(=O)c3cnn4cccnc34)oc12 [EXAMPLE 26, Methyl 4-chloro-2-((pyrazolo[1,5-a]pyrimidine-3-carboxamido)methyl)benzofuran-7-carboxylate] | 0.67 µM | 0.63 µM | – | –
9 | COC(OC(=O)c1cc(F)cc2cc(CNC(=O)c3cnc4cccnn34)oc12)C(F)(F)F (single isomer, unassigned) [EXAMPLE 314, 2,2,2-Trifluoro-1-methoxyethyl 5-fluoro-2-((imidazo[1,2-b]pyridazine-3-carboxamido)methyl)benzofuran-7-carboxylate] | – | – | 1.9 µM | 1.9 µM
10 | COC(=O)c1ccc(OC)c2cc(CNC(=O)c3cnn4cccnc34)oc12 [EXAMPLE 33, Methyl 4-methoxy-2-((pyrazolo[1,5-a]pyrimidine-3-carboxamido)methyl)benzofuran-7-carboxylate] | 16 µM | 11 µM | – | –
11 | O=C(OC1CC(c2ccc(F)cc2)C1)c1cc(Cl)cc2cc(CNC(=O)c3cnn4cccnc34)oc12 (single isomer, unassigned) [EXAMPLE 333, 3-(4-Fluorophenyl)cyclobutyl 5-chloro-2-((pyrazolo[1,5-a]pyrimidine-3-carboxamido)methyl)benzofuran-7-carboxylate] | 12 µM | 11 µM | – | –
12 | COC(=O)c1cc(Cl)cc2cc(CNC(=O)c3cnn4ccc(C)nc34)oc12 [Example 54, Methyl 5-chloro-2-((5-methylpyrazolo[1,5-a]pyrimidine-3-carboxamido)methyl) benzofuran-7-carboxylate] | – | – | 2.6 µM | 2.6 µM
13 | CC(OC(=O)c1cc(F)c(F)c2cc(CNC(=O)c3cnn4cccnc34)oc12)C(F)(F)F (centres unmarked) [EXAMPLE 227, 1,1,1-Trifluoropropan-2-yl 4,5-difluoro-2-((pyrazolo[1,5-a]pyrimidine-3-carboxamido)methyl)benzofuran-7-carboxylate] | 4.2 µM | 3.8 µM | – | –
14 | O=C(OCC(F)(F)F)c1cccc2cc(CN3Cc4ccncc4C3=O)oc12 [EXAMPLE 204, 2,2,2-Trifluoroethyl 2-((3-oxo-1,3-dihydro-2H-pyrrolo[3,4-c]pyridin-2-yl)methyl)benzofuran-7-carboxylate] | 41 µM | 32 µM | – | –
15 | COC(=O)c1cc(C)cc2c(C(F)(F)F)c(CNC(=O)c3cnn4cccnc34)oc12 [EXAMPLE 123, Methyl 5-methyl-2-((pyrazolo[1,5-a]pyrimidine-3-carboxamido)methyl)-3-(trifluoromethyl)benzofuran-7-carboxylate] | 5.9 µM | 4.3 µM | – | –
16 | COC(=O)Cc1cc(Br)cc2cc(CNC(=O)c3cnn4cccnc34)oc12 [Example 84, Methyl 2-(5-bromo-2-((pyrazolo[1,5-a]pyrimidine-3-carboxamido)methyl)benzofuran-7-yl)acetate] | 27 µM | 30 µM | – | –

Row | SMILES | EC50 ([1]; Homo sapiens, THP1-Dual, 20 h) | EC50 ([2]; Homo sapiens, THP1-Dual, 20 h) | EC50 [1] | EC50 [2]
17 | CONC(=O)c1cc(Cl)cc2cc(CNC(=O)c3cnn4cccnc34)oc12 [EXAMPLE 406, N-((5-Chloro-7-(methoxycarbamoyl)benzofuran-2-yl)methyl)pyrazolo[1,5-a]pyrimidine-3-carboxamide] | 7.1 µM | 9.4 µM | – | –
18 | CSC(=O)c1cc(C)cc2cc(CNC(=O)c3cnn4cccnc34)oc12 [EXAMPLE 391, S-Methyl 5-methyl-2-((pyrazolo[1,5-a]pyrimidine-3-carboxamido)methyl)benzofuran-7-carbothioate] | 0.61 µM | 0.75 µM | – | –
19 | C[C@H](NC(=O)c1cnn2cccnc12)c1cc2cc(Cl)cc(C(=O)OCC(F)(F)F)c2o1 [EXAMPLE 266, 2,2,2-Trifluoroethyl (S)-5-chloro-2-(1-(pyrazolo[1,5-a]pyrimidine-3-carboxamido)ethyl)benzofuran-7-carboxylate] | 2.6 µM | 3.1 µM | – | –
20 | O=C(NCc1cc2cc(Cl)cc(C(=O)OCC(F)(F)F)c2o1)c1cnccn1 [EXAMPLE 373, 2,2,2-Trifluoroethyl 5-chloro-2-((pyrazine-2-carboxamido)methyl)benzofuran-7-carboxylate] | 3.9 µM | 3.9 µM | – | –
21 | O=C(OCC(F)(F)F)c1cc(F)cc2cc(Cn3ccc4ccncc4c3=O)oc12 [EXAMPLE 362, 2,2,2-Trifluoroethyl 5-fluoro-2-((1-oxo-2,7-naphthyridin-2(1H)-yl)methyl)benzofuran-7-carboxylate] | 4.6 µM | 5.7 µM | – | –
22 | COC(=O)c1c(C)ccc2cc(CNC(=O)c3cnn4cccnc34)oc12 [EXAMPLE 108, Methyl 6-methyl-2-((pyrazolo[1,5-a]pyrimidine-3-carboxamido)methyl)benzofuran-7-carboxylate] | 31 µM | 21 µM | – | –
23 | CCc1cc(C(=O)OC)c2oc(CNC(=O)c3cnn4cccnc34)cc2c1 [EXAMPLE 101, Methyl 5-ethyl-2-((pyrazolo[1,5-a]pyrimidine-3-carboxamido)methyl)benzofuran-7-carboxylate] | 10 µM | 12 µM | – | –
24 | C=Cc1cc(C(=O)OC)c2oc(CNC(=O)c3cnn4cccnc34)cc2c1 [EXAMPLE 100, Methyl 2-((pyrazolo[1,5-a]pyrimidine-3-carboxamido)methyl)-5-vinylbenzofuran-7-carboxylate] | 2.2 µM | 2.5 µM | – | –
25 | COC(OC(=O)c1cc(C)cc2cc(CNC(=O)c3cnn4cccnc34)oc12)C(F)(F)F (single isomer, unassigned) [EXAMPLE 343, 2,2,2-Trifluoro-1-methoxyethyl 5-methyl-2-((pyrazolo[1,5-a]pyrimidine-3-carboxamido)methyl)benzofuran-7-carboxylate] | 0.76 µM | 0.73 µM | – | –
26 | COC(=O)c1ccc(F)c2cc(Cn3cnc4ccncc4c3=O)oc12 [EXAMPLE 25] | 15 µM | 10 µM | – | –
27 | COC(=O)c1cc(Cl)cc2cc([C@H](C)NC(=O)c3cnn4cccnc34)oc12 [Example 79, Methyl (S)-5-chloro-2-(1-(pyrazolo[1,5-a]pyrimidine-3-carboxamido)ethyl)benzofuran-7-carboxylate] | 1.7 µM | 1.5 µM | – | –
28 | COC(=O)c1cc(F)cc2cc(CN3CCc4ccncc4C3=O)oc12 [EXAMPLE 36, Methyl 5-fluoro-2-((1-oxo-3,4-dihydro-2,7-naphthyridin-2(1H)-yl)methyl)benzofuran-7-carboxylate] | 4.1 µM | 3.6 µM | – | –
29 | COC(=O)c1cc(Cl)cc2cc(CNC(=O)c3cncc(C)n3)oc12 [Example 59, Methyl 5-chloro-2-((6-methylpyrazine-2-carboxamido)methyl) benzofuran-7-carboxylate] | – | – | 2.6 µM | 2.4 µM
30 | Cc1cc(C(=O)O[C@H](C)C(F)(F)F)c2oc(CNC(=O)c3cnn4cccnc34)c(Cl)c2c1 [EXAMPLE 300, (R)-1,1,1-Trifluoropropan-2-yl 3-chloro-5-methyl-2-((pyrazolo[1,5-a]pyrimidine-3-carboxamido)methyl)benzofuran-7-carboxylate] | 0.71 µM | 0.76 µM | – | –
31 | COC(OC(=O)c1cc(Br)cc2cc(CNC(=O)c3cnn4cccnc34)oc12)C(F)(F)F (single isomer, unassigned) [EXAMPLE 339, 2,2,2-Trifluoro-1-methoxyethyl 5-bromo-2-((pyrazolo[1,5-a]pyrimidine-3-carboxamido)methyl)benzofuran-7-carboxylate] | 1.4 µM | 1.8 µM | – | –
